Laboratory results reported in patent US20100028973A1, “METHOD FOR PRO[…] VIRUS, HOLLOW FIBER FOR CULTURING HEPATITIS VIRUS-INFECTED CELLS, AND USE THEREOF” (KYOTO UNIVERSITY, priority 2006, published 2010).

System: patient's serum-derived HCV
Assay: HCV RNA in HuS-E/2 cells cultured in a hollow fiber and infected with patient's serum-derived HCV, with drug added (Example 5)
Type: cell-based, hepatitis C virus (HCV)
Conditions: NIM811 1 μg/ml; added after 24 hours of infection; HuS-E/2 cells in hollow fiber; collected after 3, 5 and 7 days; PCR
Protocol: HuS-E/2 cells with a density of 1×10^5 cells/well were packed into a lumen of a hollow fiber of a cellulose triacetate hollow fiber module (Toyobo Co., Ltd.; Code: TMHFK-001) by applying a centrifugal force of 80 G for 90 seconds, and then were shake-cultured with use of a 12-well plate. After 24 hours, the culture fluid was replaced with 0.8 ml of a culture fluid, prepared with use of human hepatocellular serum-free culture fluid (Toyobo Co., Ltd.; Code: TMHHM-001), which contained serum-derived HCV with 2×10^5 genome copies/ml. After 24 hours of infection, the culture fluid was removed, and the HuS-E/2 cells were washed with PBS three times. Then, three types of new culture fluid were separately added, namely a culture fluid containing INF alpha (1000 IU/ml), a culture fluid containing NIM811 (1 μg/ml), and a culture fluid containing neither of them. Each of the culture fluids was replaced with a new one every two days. The HuS-E/2 cells were collected after 3, 5, and 7 days of infection with serum-derived HCV, and their total RNA was collected with use of a Sepasol I (Nacalai Tesque, Inc). The total RNA was assayed for HCV RNA by a PCR method.

`C/C=C/C[C@@H](C)[C@@H](O)[C@H]1C(=O)N[C@@H](CC)C(=O)N(C)CC(=O)N(C)[C@@H]([C@@H](C)CC)C(=O)N[C@@H](C(C)C)C(=O)N(C)[C@@H](CC(C)C)C(=O)N[C@@H](C)C(=O)N[C@H](C)C(=O)N(C)[C@@H](CC(C)C)C(=O)N(C)[C@@H](CC(C)C)C(=O)N(C)[C@@H](C(C)C)C(=O)N1C` [NIM811] was tested, and the “proliferation of patient's serum-derived HCV in the cells (HCV RNA)” value was “remarkably inhibits”.
